Test results published in ChEMBL document CHEMBL1126278, “New neplanocin analogues. 1. Synthesis of 6'-modified neplanocin A derivatives as broad-spectrum antiviral agents” (J Med Chem, 1992).
Converted amounts (≈) assume the structure as drawn.

Tests used:
[1] = Inhibitory effect on replication of DNA virus HSV-1 (KOS) in PRK cell line.; assay type: functional, cell-based; conditions: Oryctolagus cuniculus
[2] = test system: MDCK; experiment: cells; conditions: Canis lupus familiaris
[3] = test system: MT4; experiment: Inhibitory effect on replication of RNA virus cell growth in MT-4 cell line.; assay type: functional, cell-based; conditions: Homo sapiens
[4] = test system: PRK; experiment: Inhibitory effect on replication of DNA virus Cell morphology on PRK cell line; assay type: functional, cell-based; conditions: Oryctolagus cuniculus
[5] = test system: ESM; experiment: Inhibitory effect on replication of RNA virus VSV in ESM cell line.; assay type: functional, cell-based
[6] = test system: ESM; experiment: Inhibitory effect on replication of DNA virus HSV-2 (G) in ESM cell line; assay type: functional, cell-based
[7] = test system: Vero; experiment: Inhibitory effect on replication of RNA virus cell morphology in Vero cell line.; assay type: functional, cell-based; conditions: Chlorocebus sabaeus
[8] = test system: HeLa; experiment: Inhibitory effect on replication of RNA virus cell morphology in HeLa cell line.; assay type: functional, cell-based; conditions: Homo sapiens
[9] = test system: MDCK; experiment: Inhibitory effect on replication of RNA virus cell morphology in MDCK cell line.; assay type: functional, cell-based; conditions: Canis lupus familiaris
[10] = test system: HEL; experiment: Inhibitory effect on replication of DNA virus TK-VZV (YSR) on HEL cell line.; assay type: functional, cell-based; conditions: Homo sapiens
[11] = test system: Vero; experiment: Inhibitory effect on replication of RNA virus SFV in Vero cell line; assay type: functional, cell-based; conditions: Chlorocebus sabaeus
[12] = test system: HEL; experiment: Inhibitory effect on replication of DNA virus TK-VZV (07-1) on HEL cell line.; assay type: functional, cell-based; conditions: Homo sapiens
[13] = test system: ESM; experiment: Inhibitory effect on replication of DNA virus TK-HSV-1 (B2006) on ESM cell line.; assay type: functional, cell-based
[14] = test system: MDCK; experiment: cells; conditions: Canis lupus familiaris; remark: listed apart in the source
[15] = test system: Vero; experiment: Inhibitory effect on replication of RNA virus JV in Vero cell line.; assay type: functional, cell-based; conditions: Chlorocebus sabaeus
[16] = test system: HEL; experiment: Inhibitory effect on replication of DNA virus VZV (Oka) on HEL cell line.; assay type: functional, cell-based; conditions: Homo sapiens
[17] = test system: HEL; experiment: Inhibitory effect on replication of DNA virus CMV (AD-169) on HEL cell line.; assay type: functional, cell-based; conditions: Homo sapiens
[18] = test system: ESM; experiment: Inhibitory effect on replication of DNA virus Cell morphology on ESM cell line; assay type: functional, cell-based
[19] = test system: MT4; experiment: Inhibitory effect on replication of RNA virus HIV-2 in MT-4 cell line.; assay type: functional, cell-based; conditions: Homo sapiens
[20] = test system: Vero; experiment: Inhibitory effect on replication of RNA virus coxsB-4 in Vero cell line; assay type: functional, cell-based; conditions: Chlorocebus sabaeus
[21] = test system: Vero; experiment: Inhibitory effect on replication of RNA virus TV in Vero cell line.; assay type: functional, cell-based; conditions: Chlorocebus sabaeus
[22] = test system: ESM; experiment: Inhibitory effect on replication of DNA virus HSV-1 (KOS) in ESM cell line; assay type: functional, cell-based
[23] = test system: Vero; experiment: Inhibitory effect on replication of RNA virus protein synthesis in Vero cell line.; assay type: functional, cell-based; conditions: Chlorocebus sabaeus
[24] = test system: ESM; experiment: Inhibitory effect on replication of DNA virus VV on ESM cell line.; assay type: functional, cell-based
[25] = test system: HeLa; experiment: Inhibitory effect on replication of RNA virus coxsB-4 in HeLa cell line.; assay type: functional, cell-based; conditions: Homo sapiens
[26] = test system: PRK; experiment: Inhibitory effect on replication of RNA virus cell morphology in PRK cell line.; assay type: functional, cell-based; conditions: Oryctolagus cuniculus
[27] = test system: ESM; experiment: Inhibitory effect on replication of DNA virus TK-HSV-1 (VMW 1837) on ESM cell line.; assay type: functional, cell-based
[28] = test system: Vero; experiment: Inhibitory effect on replication of RNA virus RNA synthesis in Vero cell line.; assay type: functional, cell-based; conditions: Chlorocebus sabaeus
[29] = test system: HEL; experiment: Inhibitory effect on replication of DNA virus VZV (YS) on HEL cell line.; assay type: functional, cell-based; conditions: Homo sapiens
[30] = test system: PRK; experiment: Inhibitory effect on replication of RNA virus VSV in PRK cell line.; assay type: functional, cell-based; conditions: Oryctolagus cuniculus
[31] = test system: HeLa; experiment: cells; conditions: Homo sapiens
[32] = test system: MT4; experiment: Inhibitory effect on replication of RNA virus HIV-1 in MT-4 cell line.; assay type: functional, cell-based; conditions: Homo sapiens
[33] = test system: PRK; experiment: Inhibitory effect on replication of DNA virus VV on PRK cell line.; assay type: functional, cell-based; conditions: Oryctolagus cuniculus
[34] = test system: Vero; experiment: Inhibitory effect on replication of RNA virus reo-1 in Vero cell line.; assay type: functional, cell-based; conditions: Chlorocebus sabaeus
[35] = test system: ESM; experiment: Inhibitory effect on replication of RNA virus cell morphology in ESM cell line.; assay type: functional, cell-based
[36] = test system: Vero; experiment: Inhibitory effect on replication of RNA virus SV in Vero cell line.; assay type: functional, cell-based; conditions: Chlorocebus sabaeus
[37] = test system: Vero; experiment: Inhibitory effect on replication of RNA virus PV-3 in Vero cell line.; assay type: functional, cell-based; conditions: Chlorocebus sabaeus
[38] = Inhibitory effect on replication of DNA virus HSV-2 (G) in PRK cell line.; assay type: functional, cell-based, herpes simplex virus; conditions: Human alphaherpesvirus 1, PRK
[39] = test system: HEL; experiment: Inhibitory effect on replication of DNA virus CMV (Davis) on HEL cell line.; assay type: functional, cell-based; conditions: Homo sapiens
[40] = test system: HEL; experiment: Inhibitory effect on replication of DNA virus Cell growth on HEL cell line.; assay type: functional, cell-based; conditions: Homo sapiens

Question: With `C[C@@H](O)C1=C[C@@H](n2cnc3c(N)ncnc32)[C@H](O)[C@@H]1O` as the molecule, how does the IC50 [1] read?
Answer: > 400 µg/mL

Question: What about the IC50 [2] of the same molecule?
Answer: > 100 µg/mL

Question: What about the IC50 [3] of the same molecule?
Answer: 0.09 µg/mL (≈ 0.325 µM)

Question: And the IC50 [4]?
Answer: > 400 µg/mL

Question: And the IC50 [5]?
Answer: 0.07 µg/mL (≈ 0.252 µM)

Question: What about the IC50 [6] of the same molecule?
Answer: > 400 µg/mL

Question: What about the IC50 [7] of the same molecule?
Answer: > 400 µg/mL

Question: And the IC50 [8]?
Answer: > 400 µg/mL

Question: What about the IC50 [9] of the same molecule?
Answer: > 100 µg/mL

Question: What about the IC50 [10] of the same molecule?
Answer: 6 µg/mL (≈ 21.6 µM)

Question: What about the IC50 [11] of the same molecule?
Answer: > 200 µg/mL

Question: And the IC50 [12]?
Answer: 38 µg/mL (≈ 137 µM)

Question: What about the IC50 [13] of the same molecule?
Answer: 70 µg/mL (≈ 252 µM)

Question: What about the IC50 [14] of the same molecule?
Answer: > 100 µg/mL

Question: And the IC50 [15]?
Answer: 0.4 µg/mL (≈ 1.44 µM)

Question: And the IC50 [16]?
Answer: 21 µg/mL (≈ 75.7 µM)

Question: And the IC50 [17]?
Answer: 0.06 µg/mL (≈ 0.216 µM)

Question: And the IC50 [18]?
Answer: > 400 µg/mL

Question: And the IC50 [19]?
Answer: > 0.03 µg/mL

Question: What about the IC50 [20] of the same molecule?
Answer: > 200 µg/mL

Question: What about the IC50 [21] of the same molecule?
Answer: 0.5 µg/mL (≈ 1.8 µM)

Question: What about the IC50 [22] of the same molecule?
Answer: > 400 µg/mL

Question: What about the IC50 [23] of the same molecule?
Answer: 56 µg/mL (≈ 202 µM)

Question: What about the IC50 [24] of the same molecule?
Answer: 0.04 µg/mL (≈ 0.144 µM)

Question: And the IC50 [25]?
Answer: > 400 µg/mL

Question: What about the IC50 [26] of the same molecule?
Answer: > 400 µg/mL

Question: What about the IC50 [27] of the same molecule?
Answer: 70 µg/mL (≈ 252 µM)

Question: What about the IC50 [28] of the same molecule?
Answer: 0.1 µg/mL (≈ 0.361 µM)

Question: And the IC50 [29]?
Answer: 65 µg/mL (≈ 234 µM)

Question: And the IC50 [30]?
Answer: 0.1 µg/mL (≈ 0.361 µM)

Question: What about the IC50 [31] of the same molecule?
Answer: > 400 µg/mL

Question: And the IC50 [32]?
Answer: > 0.03 µg/mL

Question: What about the IC50 [33] of the same molecule?
Answer: 0.1 µg/mL (≈ 0.361 µM)

Question: And the IC50 [34]?
Answer: 0.04 µg/mL (≈ 0.144 µM)

Question: What about the IC50 [35] of the same molecule?
Answer: > 400 µg/mL

Question: What about the IC50 [36] of the same molecule?
Answer: 4 µg/mL (≈ 14.4 µM)

Question: And the IC50 [37]?
Answer: 0.1 µg/mL (≈ 0.361 µM)

Question: What about the IC50 [38] of the same molecule?
Answer: > 200 µg/mL

Question: What about the IC50 [39] of the same molecule?
Answer: 0.03 µg/mL (≈ 0.108 µM)

Question: And the IC50 [40]?
Answer: > 200 µg/mL
